According to PubChem BioAssay (NCI):
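In this assay, cells in 96-well plates receive the compound at five concentrations for 48 hours. Endpoints are linearly interpolated between the surrounding concentrations. GI50 = concentration required for 50% inhibition of growth. TGI marks complete inhibition of growth.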

What was measured:
Assay in all cases: NCI tumour cell line growth inhibition, 48 h
MCF7 breast = test system: MCF7 breast
UACC-62 melanoma = test system: UACC-62 melanoma
TK-10 renal = test system: TK-10 renal
HS 578T breast = test system: HS 578T breast
786-0 renal = test system: 786-0 renal
PC-3 prostate = test system: PC-3 prostate
NCI/ADR-RES ovarian = test system: NCI/ADR-RES ovarian
RXF 393 renal = test system: RXF 393 renal
CAKI-1 renal = test system: CAKI-1 renal
HT29 colon = test system: HT29 colon
SF-295 CNS = test system: SF-295 CNS
IGROV1 ovarian = test system: IGROV1 ovarian
MOLT-4 leukemia = test system: MOLT-4 leukemia
SF-268 CNS = test system: SF-268 CNS
SW-620 colon = test system: SW-620 colon
NCI-H23 lung = test system: NCI-H23 lung
OVCAR-3 ovarian = test system: OVCAR-3 ovarian
HCT-116 colon = test system: HCT-116 colon
RPMI-8226 leukemia = test system: RPMI-8226 leukemia
M14 melanoma = test system: M14 melanoma
LOX IMVI melanoma = test system: LOX IMVI melanoma
A498 renal = test system: A498 renal
OVCAR-4 ovarian = test system: OVCAR-4 ovarian
MALME-3M melanoma = test system: MALME-3M melanoma
T-47D breast = test system: T-47D breast
OVCAR-8 ovarian = test system: OVCAR-8 ovarian
NCI-H460 lung = test system: NCI-H460 lung
DU-145 prostate = test system: DU-145 prostate
SNB-75 CNS = test system: SNB-75 CNS
SK-MEL-5 melanoma = test system: SK-MEL-5 melanoma
CCRF-CEM leukemia = test system: CCRF-CEM leukemia
HL-60(TB) leukemia = test system: HL-60(TB) leukemia
KM12 colon = test system: KM12 colon
SF-539 CNS = test system: SF-539 CNS
HCC-2998 colon = test system: HCC-2998 colon
SK-OV-3 ovarian = test system: SK-OV-3 ovarian
SR leukemia = test system: SR leukemia
BT-549 breast = test system: BT-549 breast
SK-MEL-2 melanoma = test system: SK-MEL-2 melanoma
OVCAR-5 ovarian = test system: OVCAR-5 ovarian
COLO 205 colon = test system: COLO 205 colon
U251 CNS = test system: U251 CNS
UACC-257 melanoma = test system: UACC-257 melanoma
MDA-MB-231 breast = test system: MDA-MB-231 breast
SN12C renal = test system: SN12C renal
SNB-19 CNS = test system: SNB-19 CNS
HCT-15 colon = test system: HCT-15 colon
MDA-MB-435 = test system: MDA-MB-435
A549 NSCLC = test system: A549 NSCLC
HOP-92 NSCLC = test system: HOP-92 NSCLC
SK-MEL-28 melanoma = test system: SK-MEL-28 melanoma
NCI-H226 lung = test system: NCI-H226 lung
K-562 leukemia = test system: K-562 leukemia
NCI-H522 lung = test system: NCI-H522 lung
UO-31 renal = test system: UO-31 renal
HOP-62 NSCLC = test system: HOP-62 NSCLC
ACHN renal = test system: ACHN renal
EKVX NSCLC = test system: EKVX NSCLC
MDA-N = test system: MDA-N

In the case of `CC(C)c1c(-c2ccccc2)nc2c(C#N)c[nH]n2c1=O`, the GI50 (MCF7 breast) is reported as 26.2 µM, the TGI (MCF7 breast) is reported as > 91.5 µM and the GI50 (UACC-62 melanoma) is reported as 24.3 µM. The TGI (UACC-62 melanoma) was 72.2 µM, the GI50 (TK-10 renal) was 29.1 µM and the TGI (TK-10 renal) was > 100 µM. For the same compound, the GI50 (HS 578T breast) was 29.7 µM, the TGI (HS 578T breast) was 99.6 µM and the GI50 (786-0 renal) was 35.1 µM. The TGI (786-0 renal) was > 100 µM, the GI50 (PC-3 prostate) was 25.2 µM and the TGI (PC-3 prostate) was > 73.5 µM. For the same compound, the GI50 (NCI/ADR-RES ovarian) was 31.2 µM, the TGI (NCI/ADR-RES ovarian) was > 100 µM and the GI50 (RXF 393 renal) was 29.3 µM. The TGI (RXF 393 renal) was > 93.4 µM, the GI50 (CAKI-1 renal) was 31.2 µM and the TGI (CAKI-1 renal) was > 100 µM. The GI50 (HT29 colon) was 33.9 µM, the TGI (HT29 colon) was > 100 µM and the GI50 (SF-295 CNS) was 28.7 µM. The TGI (SF-295 CNS) was > 84 µM, the GI50 (IGROV1 ovarian) was 34.3 µM and the TGI (IGROV1 ovarian) was > 100 µM. For the same compound, the GI50 (MOLT-4 leukemia) was 32 µM, the TGI (MOLT-4 leukemia) was > 100 µM and the GI50 (SF-268 CNS) was 28.8 µM. The TGI (SF-268 CNS) was > 100 µM, the GI50 (SW-620 colon) was 35.3 µM and the TGI (SW-620 colon) was > 100 µM. The GI50 (NCI-H23 lung) was 26.1 µM, the TGI (NCI-H23 lung) was > 79.6 µM and the GI50 (OVCAR-3 ovarian) was 25.2 µM. For the same compound, the TGI (OVCAR-3 ovarian) was 63.8 µM, the GI50 (HCT-116 colon) was 30.5 µM and the TGI (HCT-116 colon) was > 100 µM. It also gave a GI50 (RPMI-8226 leukemia) of 24.2 µM, a TGI (RPMI-8226 leukemia) of 67.7 µM and a GI50 (M14 melanoma) of 30.6 µM. For the same compound, the TGI (M14 melanoma) was > 100 µM, the GI50 (LOX IMVI melanoma) was 29 µM and the TGI (LOX IMVI melanoma) was > 91.2 µM. The GI50 (A498 renal) was 13 µM, the TGI (A498 renal) was 51.1 µM and the GI50 (OVCAR-4 ovarian) was 25.6 µM. The TGI (OVCAR-4 ovarian) was > 90 µM, the GI50 (MALME-3M melanoma) was 24.3 µM and the TGI (MALME-3M melanoma) was 73.3 µM. The GI50 (T-47D breast) was 25.2 µM, the TGI (T-47D breast) was 87.6 µM and the GI50 (OVCAR-8 ovarian) was 32.2 µM. The TGI (OVCAR-8 ovarian) was > 100 µM, the GI50 (NCI-H460 lung) was 32.6 µM and the TGI (NCI-H460 lung) was > 100 µM. For the same compound, the GI50 (DU-145 prostate) was 37.1 µM, the TGI (DU-145 prostate) was > 100 µM and the GI50 (SNB-75 CNS) was 21.4 µM. For the same compound, the TGI (SNB-75 CNS) was > 95.2 µM, the GI50 (SK-MEL-5 melanoma) was 19.6 µM and the TGI (SK-MEL-5 melanoma) was 40.4 µM. For the same compound, the GI50 (CCRF-CEM leukemia) was 28.5 µM, the TGI (CCRF-CEM leukemia) was > 100 µM and the GI50 (HL-60(TB) leukemia) was 22.3 µM. For the same compound, the TGI (HL-60(TB) leukemia) was 60.4 µM, the GI50 (KM12 colon) was 31.7 µM and the TGI (KM12 colon) was > 100 µM. For the same compound, the GI50 (SF-539 CNS) was 29.4 µM, the TGI (SF-539 CNS) was > 100 µM and the GI50 (HCC-2998 colon) was 29 µM. For the same compound, the TGI (HCC-2998 colon) was > 100 µM, the GI50 (SK-OV-3 ovarian) was 27.2 µM and the TGI (SK-OV-3 ovarian) was > 88.6 µM. The GI50 (SR leukemia) was 31.1 µM, the TGI (SR leukemia) was > 100 µM and the GI50 (BT-549 breast) was 26.2 µM. The TGI (BT-549 breast) was > 95.5 µM, the GI50 (SK-MEL-2 melanoma) was 27.7 µM and the TGI (SK-MEL-2 melanoma) was 78.8 µM. The GI50 (OVCAR-5 ovarian) was 38.8 µM, the TGI (OVCAR-5 ovarian) was > 100 µM and the GI50 (COLO 205 colon) was 25.1 µM. The TGI (COLO 205 colon) was 75.2 µM, the GI50 (U251 CNS) was 33.8 µM and the TGI (U251 CNS) was > 100 µM. For the same compound, the GI50 (UACC-257 melanoma) was 23.1 µM, the TGI (UACC-257 melanoma) was 66.9 µM and the GI50 (MDA-MB-231 breast) was 33 µM. The TGI (MDA-MB-231 breast) was > 100 µM, the GI50 (SN12C renal) was 29.2 µM and the TGI (SN12C renal) was > 100 µM. For the same compound, the GI50 (SNB-19 CNS) was 30.8 µM, the TGI (SNB-19 CNS) was > 100 µM and the GI50 (HCT-15 colon) was 31.8 µM. The TGI (HCT-15 colon) was > 100 µM, the GI50 (MDA-MB-435) was 31.1 µM and the TGI (MDA-MB-435) was > 100 µM. The GI50 (A549 NSCLC) was 33.4 µM, the TGI (A549 NSCLC) was > 100 µM and the GI50 (HOP-92 NSCLC) was 7.85 µM. The TGI (HOP-92 NSCLC) was 49.6 µM, the GI50 (SK-MEL-28 melanoma) was 33.5 µM and the TGI (SK-MEL-28 melanoma) was > 100 µM. For the same compound, the GI50 (NCI-H226 lung) was 27 µM, the TGI (NCI-H226 lung) was > 87.7 µM and the GI50 (K-562 leukemia) was 33.8 µM. The TGI (K-562 leukemia) was > 100 µM, the GI50 (NCI-H522 lung) was 26 µM and the TGI (NCI-H522 lung) was 80 µM. It also gave a GI50 (UO-31 renal) of 26.5 µM, a TGI (UO-31 renal) of 98.6 µM and a GI50 (HOP-62 NSCLC) of 25.4 µM. The TGI (HOP-62 NSCLC) was > 95.7 µM, the GI50 (ACHN renal) was 30.6 µM and the TGI (ACHN renal) was > 90.9 µM. For the same compound, the GI50 (EKVX NSCLC) was 49.4 µM and the TGI (EKVX NSCLC) was > 100 µM.

In the case of `Cc1ccc(S(=O)(=O)OC2C(O)C(O)OC2C(c2cc(O)c3c(c2O)C(=O)c2ccccc2C3=O)c2cc(O)c3c(c2O)C(=O)c2ccccc2C3=O)cc1` (centres undefined), the TGI (MCF7 breast) is reported as > 10 µM, the TGI (UACC-62 melanoma) is reported as > 10 µM and the TGI (TK-10 renal) is reported as > 10 µM. The TGI (786-0 renal) was > 10 µM, the TGI (PC-3 prostate) was 9.43 µM and the TGI (RXF 393 renal) was > 10 µM. For the same compound, the TGI (CAKI-1 renal) was 8.9 µM, the TGI (HT29 colon) was > 10 µM and the TGI (SF-295 CNS) was 9.33 µM. For the same compound, the TGI (IGROV1 ovarian) was > 10 µM, the TGI (MOLT-4 leukemia) was > 10 µM and the TGI (SW-620 colon) was > 10 µM. It also gave a TGI (NCI-H23 lung) of 8.93 µM, a TGI (RPMI-8226 leukemia) of 8.67 µM and a TGI (M14 melanoma) of 8.71 µM. For the same compound, the TGI (MDA-N) was > 10 µM, the TGI (MALME-3M melanoma) was 6.98 µM and the TGI (T-47D breast) was > 10 µM. The TGI (OVCAR-8 ovarian) was > 10 µM, the TGI (DU-145 prostate) was > 10 µM and the TGI (SNB-75 CNS) was > 10 µM. For the same compound, the TGI (SK-MEL-5 melanoma) was > 10 µM, the TGI (CCRF-CEM leukemia) was > 10 µM and the TGI (HL-60(TB) leukemia) was 4.52 µM. The TGI (KM12 colon) was > 10 µM, the TGI (HCC-2998 colon) was > 10 µM and the TGI (SK-OV-3 ovarian) was > 10 µM. The TGI (SR leukemia) was > 10 µM, the TGI (COLO 205 colon) was 4.85 µM and the TGI (UACC-257 melanoma) was > 10 µM. For the same compound, the TGI (MDA-MB-231 breast) was > 10 µM, the TGI (SN12C renal) was > 10 µM and the TGI (HCT-15 colon) was > 10 µM. For the same compound, the TGI (A549 NSCLC) was > 10 µM, the TGI (SK-MEL-28 melanoma) was > 10 µM and the TGI (K-562 leukemia) was > 10 µM. For the same compound, the TGI (HOP-62 NSCLC) was > 10 µM and the TGI (EKVX NSCLC) was > 10 µM.
